Experimental data from patent US20230305022A1, “Biomarkers in Primary Biliary Cholangitis” (University of Newcastle upon Tyne, priority 2020, published 2023).

Test system: Ep-CAM
Experiment: Discovery serum proteomics (Olink), UDCA-treated vs treatment-naïve PBC patients
Assay type: in vivo, human
Conditions: serum NPX, UDCA 13-15 mg/kg/day for >12 months (n=416) vs treatment-naïve (n=68)
Procedure: UDCA-Treated PBC: These were PBC patients who had been taking UDCA at a therapeutic dose (13-15 mg/kg/day) for greater than 12 months. Clinical parameters, including serum biochemistry were available both pre-treatment and after 12 months of UDCA therapy. This allowed all UDCA-treated patients to be assigned to responder and non-responder groups using current standard criteria including Paris 1 (Alanine Transaminase (ALT)>2× upper limit of normal [ULN], Alkaline Phosphatase (ALP)>3×ULN, Bilirubin>1×ULN) (Corpechot et al., 2008), Paris 2 (ALP and ALT both >1.5×ULN)(Corpechot et al., 2011) and POISE (ALP <1.67×ULN and bilirubin <1×ULN) (Nevens et al., 2016). UK-PBC risk score 10-year predicted survival was also calculated for UDCA-treated patients after therapy. Patients taking fibrates and or OCA were not included in the current study. […]
Blood was collected under the approval of the Human Tissue Authority (HTA) by the UK-PBC tissue Bioresource with written informed patient consent obtained in accordance with research and ethics committee (REC) approval (14/NW/1146). […] 4 μl serum was analysed for 368 analytes from 4 distinct panels including Cardiovascular II &Ill, Inflammation and Oncology II (https://www.olink.com/). […] In turn, this was amplified by microfluidic quantitative PCR with normalised protein expression (NPX) data generated by a ΔΔct calculation method. […]

SMILES: C[C@H](CCC(=O)O)[C@H]1CC[C@H]2[C@@H]3[C@@H](O)C[C@@H]4C[C@H](O)CC[C@]4(C)[C@H]3CC[C@]12C [UDCA, Ursodeoxycholic acid]
- log Fold Change of serum protein, UDCA Tx vs Naïve Tx: −0.84
